Experimental data taken from PubChem BioAssay (NCI).
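Cultured in 96-well plates, cells were exposed to test compound for 48 hours across five concentrations. GI50 is the concentration that inhibits growth by half. TGI is the concentration that stops growth completely.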

What was measured:
Assay in all cases: NCI tumour cell line growth inhibition, 48 h
[1] = tested on: RPMI-8226 leukemia
[2] = tested on: SF-268 CNS
[3] = tested on: SK-MEL-28 melanoma
[4] = tested on: OVCAR-3 ovarian
[5] = tested on: SNB-19 CNS
[6] = tested on: NCI-H23 lung
[7] = tested on: SK-MEL-2 melanoma
[8] = tested on: CAKI-1 renal
[9] = tested on: OVCAR-5 ovarian
[10] = tested on: EKVX NSCLC

SMILES | GI50 [1] | TGI [1] | GI50 [2] | TGI [2] | GI50 [3] | TGI [3] | GI50 [4] | TGI [4] | GI50 [5] | TGI [5] | GI50 [6] | TGI [6] | GI50 [7] | TGI [7] | GI50 [8] | TGI [8] | GI50 [9] | TGI [9] | TGI [10] | GI50 [10]
CC(C)C[C@H](NC(=O)[C@@H](Cc1ccccc1)n1ccc(Nc2ccccc2)cc1=O)B(O)O | 0.154 µM | 3.87 µM | 0.385 µM | 2.31 µM | 0.349 µM | 2.98 µM | 0.233 µM | 0.561 µM | 0.714 µM | > 100 µM | 0.835 µM | 19.4 µM | 0.316 µM | 1.59 µM | 0.403 µM | 5.45 µM | 1.7 µM | 8.34 µM |  | 
CCN(N=O)C1C2(CCCC2)NC(=O)C12CCCC2 (stereo unspecified) |  | > 100 µM |  | > 100 µM |  | > 100 µM |  | > 100 µM |  | > 100 µM |  | > 100 µM |  |  |  |  |  | > 100 µM | > 100 µM | 
Nc1c(C(=O)Nc2cccc(Cl)c2)sc2nc3c(cc12)C(O)CCC3 (stereo unspecified) | 0.36 µM | 5.01 µM | 0.754 µM | 39.1 µM | 3.02 µM | 59 µM | 0.311 µM | 1.22 µM | 4.35 µM | 99.4 µM | 0.711 µM | > 100 µM | 0.585 µM | 48.6 µM | 0.432 µM | 30.4 µM | 2.89 µM | 33.9 µM |  | 
CC(=O)OC(COc1ccc2c(c1)[n+]([O-])nc(N)[n+]2[O-])CN1CCCCC1 (stereo unspecified) |  | 25.8 µM |  |  |  | > 100 µM |  | 38 µM |  | > 100 µM |  | 47.9 µM |  | 26.4 µM |  | > 100 µM |  | 61.2 µM |  | 
CCN1CCN(Cc2ccc(Nc3ncc(F)c(-c4cc(F)c5nc(C)n(C(C)C)c5c4)n3)nc2)CC1 | 6.68 µM | 19.1 µM | 5.32 µM | 13.9 µM | 6.03 µM | 12.9 µM | 6.34 µM | 13.5 µM | 5.48 µM | 12.4 µM | 3.26 µM | 15.2 µM | > 50 µM | > 50 µM | 0.187 µM | 7.51 µM | 8.53 µM | 50 µM |  | 
Cc1ccc2ncnc(N(C)C3CCCCC3)c2c1 | 6.11 µM | 28.7 µM | 23.7 µM | 89.8 µM | 40 µM | > 100 µM | 23.3 µM | 54.5 µM | 59.5 µM | > 100 µM | 26.5 µM | 74.4 µM | 37.5 µM | > 100 µM | 13.9 µM | 39 µM | 41.2 µM | > 100 µM |  | 
CS(=O)(=O)N1CCC(Nc2ncc(C(=O)c3c(F)cccc3F)c(N)n2)CC1 | 7.67 µM | > 25 µM | > 17.9 µM | > 25 µM | 18.6 µM | > 25 µM | 13.7 µM | > 25 µM | 6.45 µM | > 25 µM | 8.6 µM | > 25 µM | > 20.9 µM | > 25 µM | 8.76 µM | > 25 µM | 9.78 µM | > 25 µM |  | 
Cc1ccc(C2=NN(c3ccc(S(=O)(=O)NC(=O)NCc4ccccc4)cc3)C(c3ccc(N(C)C)cc3)C2)c(C)c1 (stereo unspecified) | 2.88 µM | 10.6 µM | 4.37 µM | 45.1 µM | 2.36 µM | 6.89 µM | 2.24 µM | 4.95 µM | 4.6 µM | > 100 µM | 3.6 µM | 17.8 µM | 3.32 µM | 8.85 µM | 3.45 µM | 87.1 µM | 5.4 µM | 29.3 µM |  | 
CCOc1cc(Cl)c(C(C)NC(=O)c2cccc(OC)c2)cc1OCC (stereo unspecified) | 16.1 µM | > 100 µM | 23.6 µM | > 100 µM | 16.5 µM | > 100 µM | 4.19 µM | 29.4 µM | 12.6 µM | > 100 µM | 21.7 µM | > 100 µM | 4.67 µM | > 100 µM | 11.1 µM | > 100 µM | > 52.7 µM | > 100 µM |  | 
CCCCCOC(=O)Nc1nc(=O)n(C2OC(C)C(O)C2O)cc1F (stereo unspecified) |  |  | > 10000 µM | > 10000 µM | > 10000 µM | > 10000 µM |  |  | > 10000 µM | > 10000 µM |  |  | > 10000 µM | > 10000 µM | > 10000 µM | > 10000 µM | > 10000 µM | > 10000 µM |  | 
Clc1nc(Cl)c2ncn(-c3ccccc3)c2n1 |  |  | 3.26 µM | 15.4 µM | 4.69 µM | 17.3 µM | 1.69 µM | 3.46 µM | 10.7 µM | 23.9 µM | 2.14 µM | 4.84 µM | 13.8 µM | 27.1 µM |  |  | 15 µM | 30.4 µM | 19.2 µM | 4.49 µM
O=S(=O)(NCCNc1nccc(-c2c(-c3ccc(F)cc3)nc3sccn23)n1)c1ccc(O)cc1 | 4.52 µM | 29.3 µM | 3.99 µM | 56.2 µM | 4.4 µM | 37.8 µM |  |  | 12.5 µM | > 100 µM | 4.96 µM | 28.1 µM | 4.18 µM | 17.3 µM | 4.07 µM | 48.3 µM | 11.8 µM | > 100 µM |  | 
